Where two headings read alike, the source gives them in different places.

One assay addresses KRAS-G12V/RAF1 (Homo sapiens (Human), UniProt P01116, G12V). As to the kind of experiment: KRAS/RAF1 binding inhibition assay (AlphaScreen). In outline: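 IC50 comes from variable-slope nonlinear fits of % inhibition (relative to DMSO) against inhibitor concentration. The AlphaScreen signal tracks the interaction of GppNHp-bound KRAS G12V with the RAF1 RBD after 60 min at 4° C with compound in 2% DMSO final.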
For orientation: In Alpha technology, singlet oxygen from a donor bead excites a nearby acceptor bead.

The next assay has as its target KRAS G12V (Homo sapiens (Human), UniProt P01116, G12V). As to the kind of experiment: KRAS G12V degradation in SW620 cells (Western blot, DC50). The format is cell-based. To be noted: 24 hours. In outline:
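KRAS levels were quantified by fluorescent Western blot as percent of the DMSO control after 24 h of compound exposure at 37° C in homozygous KRAS G12V SW620 cells. A four-parameter variable-slope fit of the dose-response gave the half-maximal degradation concentration.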
(A western blot detects proteins with antibodies after separation by electrophoresis.)

A further assay concerns SW620 cells. As to the kind of experiment: 3D cell growth inhibition of SW620 cells carrying endogenous KRAS G12V mutation (CellTiter-Glo 3D, GI50). The conditions noted are these: Homo sapiens, SW-620, 144 h, read-out: SW620 3D cell growth GI50. In kind it is cell-based. In outline:
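[…], compound exposure lasted 6 days at 37° C, added the day after plating from DMSO stocks over a concentration range. Cells: SW620, KRAS G12V, 3D culture.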
(In ATP-based viability assays light output follows the ATP content of the culture.)

KRAS-G12V/RAF1, sequence (P01116-2 other isoform, or with tags, fused parts or gaps G12V): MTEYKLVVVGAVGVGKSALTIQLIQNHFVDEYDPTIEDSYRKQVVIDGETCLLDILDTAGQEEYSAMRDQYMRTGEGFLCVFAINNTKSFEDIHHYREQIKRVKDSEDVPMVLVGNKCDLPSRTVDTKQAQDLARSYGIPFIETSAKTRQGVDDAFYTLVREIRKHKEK
KRAS G12V, sequence (P01116-2 other isoform, or with tags, fused parts or gaps G12V): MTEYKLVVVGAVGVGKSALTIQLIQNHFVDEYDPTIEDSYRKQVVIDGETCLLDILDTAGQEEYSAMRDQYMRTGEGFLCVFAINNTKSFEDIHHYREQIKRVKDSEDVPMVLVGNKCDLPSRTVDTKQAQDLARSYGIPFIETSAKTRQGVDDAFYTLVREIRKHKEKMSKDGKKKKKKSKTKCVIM

As a reminder, the IC50 is the concentration that gives 50% inhibition. Broadly, the DC50 is the concentration giving 50% degradation. Higher therefore signals degradation only at high concentration. For orientation: GI50 means the concentration giving 50% growth inhibition. `CCc1c(F)ccc2cc(O)cc(-c3ncc4c(N5CCC[C@@](C)(O)C5)nc(OCC5(CN6CCN(C7CCC8(CC7)CCN(c7ccc9c(c7)CN(C7CCC(=O)NC7=O)C9=O)CC8)CC6)CC5)nc4c3F)c12` (stereo partly drawn) [Compound 171, 3-(5-(9-(4-((1-(((7-(8-ethyl-7-fluoro-3-hydroxynaphthalen-1-yl)-8-fluoro-4-((R)-3-hydroxy-3-methylpiperidin-1-yl)pyrido[4,3-d]pyrimidin-2-yl)oxy)methyl)cyclopropyl)methyl)piperazin-1-yl)-3-azaspiro[5.5]undecan-3-yl)-1-oxoisoindolin-2-yl)piperidine-2,6-dione] had an IC50 on KRAS-G12V/RAF1 of 0.02 to 0.2 µM. The molecule further registered a DC50 at KRAS G12V above 0.1 µM. For the same molecule, in the assay with SW620 cells (SW620 cells, 6 days), the GI50 was 0.01 to 0.1 µM.

As to `CCc1c(F)ccc2cc(O)cc(-c3ncc4c(N5CCC(O)CC5)nc(OCC5(CN6CCC7(CC6)CC(CN6CCN(c8ccc9c(c8)CN([C@H]8CCC(=O)NC8=O)C9=O)CC6)C7)CC5)nc4c3F)c12` [Compound 114, (S)-3-(5-(4-((7-((1-(((7-(8-ethyl-7-fluoro-3-hydroxynaphthalen-1-yl)-8-fluoro-4-(4-hydroxypiperidin-1-yl)pyrido[4,3-d]pyrimidin-2-yl)oxy)methyl)cyclopropyl)methyl)-7-azaspiro[3.5]nonan-2-yl)methyl)piperazin-1-yl)-1-oxoisoindolin-2-yl)piperidine-2,6-dione], the IC50 at KRAS-G12V/RAF1 was above 0.2 µM. Further, on KRAS G12V, the DC50 is above 0.1 µM. Also, in the assay on SW620 cells (SW620 cells, 6 days), the GI50 is above 0.1 µM.

On to `CCc1c(F)ccc2cc(O)cc(-c3ncc4c(N5CCC[C@@](C)(O)C5)nc(OCC5(CN6CCC(N7CC8(CCN(c9cc(F)c(C%10CCC(=O)NC%10=O)c(F)c9)CC8)C7)CC6)CC5)nc4c3F)c12` (stereo partly drawn) [Compound 57, 3-(4-(2-(1-((1-(((7-(8-ethyl-7-fluoro-3-hydroxynaphthalen-1-yl)-8-fluoro-4-((R)-3-hydroxy-3-methylpiperidin-1-yl)pyrido[4,3-d]pyrimidin-2-yl)oxy)methyl)cyclopropyl)methyl)piperidin-4-yl)-2,7-diazaspiro[3.5]nonan-7-yl)-2,6-difluorophenyl)piperidine-2,6-dione], for which, on KRAS-G12V/RAF1, the IC50 is below 0.02 µM. Moreover, the DC50 at KRAS G12V lay in the range of 0.001 to 0.01 µM. Moreover, the GI50 in the assay on SW620 cells (SW620 cells, 6 days) was below 0.01 µM.

As for `CCc1c(F)ccc2cc(O)cc(-c3ncc4c(N5CCOCC(C)(O)C5)nc(OCC5(CN6CCC(CN7CCN(c8ccc9c(c8)CN([C@H]8CCC(=O)NC8=O)C9=O)CC7)CC6)CC5)nc4c3F)c12` (stereo partly drawn) [Compound 92, (3S)-3-(5-(4-((1-((1-(((7-(8-ethyl-7-fluoro-3-hydroxynaphthalen-1-yl)-8-fluoro-4-(6-hydroxy-6-methyl-1,4-oxazepan-4-yl)pyrido[4,3-d]pyrimidin-2-yl)oxy)methyl)cyclopropyl)methyl)piperidin-4-yl)methyl)piperazin-1-yl)-1-oxoisoindolin-2-yl)piperidine-2,6-dione], the IC50 on KRAS-G12V/RAF1 lay in the range of 0.02 to 0.2 µM. The DC50 on KRAS G12V lay in the range of 0.001 to 0.01 µM. Besides, the concentration for 50% growth inhibition (GI50) in the assay on SW620 cells (SW620 cells, 6 days) was below 0.01 µM.

`CCc1cccc2cc(O)cc(-c3ncc4c(N5CCC[C@@](C)(O)C5)nc(OCC5(CN6CCC7(CC6)CC(CN6CCN(c8ccc9c(c8)CN([C@H]8CCC(=O)NC8=O)C9=O)CC6)C7)CC5)nc4c3F)c12` [Compound 87, (S)-3-(5-(4-((7-((1-(((7-(8-ethyl-3-hydroxynaphthalen-1-yl)-8-fluoro-4-((R)-3-hydroxy-3-methylpiperidin-1-yl)pyrido[4,3-d]pyrimidin-2-yl)oxy)methyl)cyclopropyl)methyl)-7-azaspiro[3.5]nonan-2-yl)methyl)piperazin-1-yl)-1-oxoisoindolin-2-yl)piperidine-2,6-dione] displayed an IC50 on KRAS-G12V/RAF1 of 0.02 to 0.2 µM. At KRAS G12V, this molecule gave a DC50 of 0.001 to 0.01 µM. In addition, the GI50 in the assay with SW620 cells was below 0.01 µM.

In turn, `CCc1c(F)ccc2cc(O)cc(-c3ncc4c(N5CCC[C@@](C)(O)C5)nc(OCC5(CN6CCC7(CC6)CCN(C6CN(c8ccc9c(c8)CN(C8CCC(=O)NC8=O)C9=O)C6)CC7)CC5)nc4c3F)c12` (stereo partly drawn) [Compound 164, 3-(5-(3-(9-((1-(((7-(8-ethyl-7-fluoro-3-hydroxynaphthalen-1-yl)-8-fluoro-4-((R)-3-hydroxy-3-methylpiperidin-1-yl)pyrido[4,3-d]pyrimidin-2-yl)oxy)methyl)cyclopropyl)methyl)-3,9-diazaspiro[5.5]undecan-3-yl)azetidin-1-yl)-1-oxoisoindolin-2-yl)piperidine-2,6-dione] gave an IC50 on KRAS-G12V/RAF1 of 0.02 to 0.2 µM. Moreover, the DC50 on KRAS G12V was in the range of 0.001 to 0.01 µM. Further, the GI50 in the assay with SW620 cells (SW620 cells, 6 days) was below 0.01 µM.

Consider `CCc1c(F)ccc2cc(O)cc(-c3ncc4c(N5C[C@@H]6C[C@H](C5)[C@H](O)C6)nc(OCC5(CN6CCC7(CC6)CC(CN6CCN(c8ccc9c(c8)CN([C@H]8CCC(=O)NC8=O)C9=O)CC6)C7)CC5)nc4c3F)c12` [Compound 90, (S)-3-(5-(4-((7-((1-(((7-(8-ethyl-7-fluoro-3-hydroxynaphthalen-1-yl)-8-fluoro-4-((IR,5R,6R)-6-hydroxy-3-azabicyclo[3.2.1]octan-3-yl)pyrido[4,3-d]pyrimidin-2-yl)oxy)methyl)cyclopropyl)methyl)-7-azaspiro[3.5]nonan-2-yl)methyl)piperazin-1-yl)-1-oxoisoindolin-2-yl)piperidine-2,6-dione], for which the IC50 on KRAS-G12V/RAF1 is above 0.2 µM. At KRAS G12V, this molecule returned a DC50 of 0.001 to 0.01 µM. In addition, the GI50 in the assay with SW620 cells (SW620 cells, 6 days) was below 0.01 µM.

Molecule `CCc1cccc2cc(O)cc(-c3ncc4c(N5CCC[C@@](C)(O)C5)nc(OCC5(CN6CC(N7CC(N8CCN(c9ccc%10c(c9)CN([C@H]9CCC(=O)NC9=O)C%10=O)CC8)C7)C6)CC5)nc4c3F)c12` [Compound 168, (S)-3-(5-(4-(1′-((1-(((7-(8-ethyl-3-hydroxynaphthalen-1-yl)-8-fluoro-4-((R)-3-hydroxy-3-methylpiperidin-1-yl)pyrido[4,3-d]pyrimidin-2-yl)oxy)methyl)cyclopropyl)methyl)-[1,3′-biazetidin]-3-yl)piperazin-1-yl)-1-oxoisoindolin-2-yl)piperidine-2,6-dione] gave an IC50 at KRAS-G12V/RAF1 of 0.02 to 0.2 µM. The molecule further yielded a DC50 at KRAS G12V of 0.001 to 0.01 µM. Further, the GI50 in the assay with SW620 cells (SW620 cells, 6 days) was above 0.1 µM.

The molecule `CCc1cccc2cc(O)cc(-c3ncc4c(N5CCC[C@@](C)(O)C5)nc(OCC5(CN6CCC7(CC6)CC(F)(CN6CCN(c8ccc9c(c8)CN([C@H]8CCC(=O)NC8=O)C9=O)CC6)C7)CC5)nc4c3F)c12` [Compound 173, (S)-3-(5-(4-((7-((1-(((7-(8-ethyl-3-hydroxynaphthalen-1-yl)-8-fluoro-4-((R)-3-hydroxy-3-methylpiperidin-1-yl)pyrido[4,3-d]pyrimidin-2-yl)oxy)methyl)cyclopropyl)methyl)-2-fluoro-7-azaspiro[3.5]nonan-2-yl)methyl)piperazin-1-yl)-1-oxoisoindolin-2-yl)piperidine-2.6-dione] displayed an IC50 at KRAS-G12V/RAF1 of 0.02 to 0.2 µM. The molecule further had a half-maximal degradation concentration (DC50) at KRAS G12V below 0.001 µM. Also, the 50% growth inhibitory concentration (GI50) in the assay with SW620 cells (SW620 cells, 6 days) is below 0.01 µM.

On to `CCc1c(F)ccc2cc(O)cc(-c3ncc4c(N5CCC[C@@](C)(O)C5)nc(OCC5(CN6CC7(CCN(C8CN(c9ccc%10c(c9)CN(C9CCC(=O)NC9=O)C%10=O)C8)CC7)C6)CC5)nc4c3F)c12` (stereo partly drawn) [Compound 172, 3-(5-(3-(2-((1-(((7-(8-ethyl-7-fluoro-3-hydroxynaphthalen-1-yl)-8-fluoro-4-((R)-3-hydroxy-3-methylpiperidin-1-yl)pyrido[4,3-d]pyrimidin-2-yl)oxy)methyl)cyclopropyl)methyl)-2,7-diazaspiro[3.5]nonan-7-yl)azetidin-1-yl)-1-oxoisoindolin-2-yl)piperidine-2,6-dione], for which, at KRAS-G12V/RAF1, the IC50 was below 0.02 µM. The 50% degradation concentration (DC50) at KRAS G12V was 0.001 to 0.01 µM. The GI50 with SW620 cells (SW620 cells, 6 days) was below 0.01 µM.

For the origin of these results see patent US20250092039A1, “GLUTARIMIDE-CONTAINING PAN-KRAS-MUTANT DEGRADER COMPOUNDS AND USES THEREOF” (Tiger Biotherapeutics Inc., priority 2022, published 2025).
